We go through ten molecules from PubChem BioAssay (NCI).

Test systems include COLO 205 colon; EKVX NSCLC; HCC-2998 colon; M14 melanoma; OVCAR-3 ovarian; PC-3 prostate; SW-620 colon; SR leukemia.
Holding throughout (test): inhibition of tumour cell growth, NCI panel, 48 h

Several values for one entry are separate records, joined by “and”; a condition that tells them apart may be missing. Identical values can stand only once.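 Following 48 hours of exposure in 96-well plates, responses at five concentrations were used to interpolate endpoints linearly. At the GI50, growth is halved. TGI denotes the concentration required for complete inhibition of growth.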

Regarding `CCN(CC)CCC(=O)OC1C(C)=CC(C)C(=O)CC(C(C)CC2CCC(O)C(OC)C2)OC(=O)C2CCCCN2C(=O)C(=O)[C@@]2(O)OC(CCC2C)CC(OC)\C(C)=C/C=C/C=C/C(C)CC(C)C(=O)C1OC` (some centres not stated), the TGI in the assay on COLO 205 colon was 24.6 µM; with EKVX NSCLC it was 17.1 µM; in the assay with HCC-2998 colon it was 21.8 µM; in the assay on M14 melanoma it was 22.6 µM; in the assay with OVCAR-3 ovarian, 23.5 µM; in the assay with PC-3 prostate it was 22.4 µM. In the assay on SW-620 colon, this molecule yielded a TGI of 25.3 µM.
Turning to `CCn1c(-c2c(Cl)cc(O)cc2Cl)cc2c(Cl)cc(O)cc21`, the TGI in the assay on COLO 205 colon is 36.8 µM; in the assay with EKVX NSCLC, 58.5 µM; in the assay on M14 melanoma it was 91.5 µM; with OVCAR-3 ovarian, 97 µM; with PC-3 prostate, greater than 100 µM; in the assay with SR leukemia it was greater than 100 µM. The TGI in the assay on SW-620 colon was 41 µM.
Take `O=C1C=C2C=CC3CC2(O1)C1CCCCN31` (configuration not stated): the GI50 was 21.6 µM and 15.1 µM and 58.7 µM in the assay with COLO 205 colon; 14.1 µM and 11.6 µM and 38.6 µM with EKVX NSCLC; 28.1 µM and 24 µM and 54.4 µM with M14 melanoma; 18.6 µM and 17.3 µM and 40.6 µM in the assay on OVCAR-3 ovarian; 16.9 µM and 13.7 µM and 38 µM with SW-620 colon. The TGI in the assay on COLO 205 colon was 73.5 µM and 29.3 µM and > 100 µM; with EKVX NSCLC, 57.4 µM and 35.5 µM and > 100 µM; in the assay on HCC-2998 colon it was 40.9 µM and 42.4 µM and 86.4 µM; with M14 melanoma it was greater than 100 µM; in the assay with OVCAR-3 ovarian, 69.6 µM and 48.1 µM and > 100 µM; with PC-3 prostate, > 100 µM and 73.4 µM. The TGI with SW-620 colon is 42.4 µM and 39 µM and > 100 µM.
For the molecule `Cc1ccc(-c2c(C#N)[n+](=O)c3cc(F)c(F)cc3n2[O-])cc1`, the GI50 is 19.5 µM with COLO 205 colon; 21.2 µM in the assay with EKVX NSCLC; 10.3 µM in the assay with HCC-2998 colon; 2.18 µM in the assay on M14 melanoma; 1.77 µM in the assay on OVCAR-3 ovarian; 1.43 µM in the assay with PC-3 prostate. Further, the GI50 in the assay with SW-620 colon is 3.9 µM. Moreover, the TGI in the assay with COLO 205 colon was 38.6 µM; in the assay with EKVX NSCLC, 38.9 µM; in the assay with HCC-2998 colon, 23.5 µM; with M14 melanoma, 5.73 µM; with OVCAR-3 ovarian, 3.61 µM; in the assay on PC-3 prostate, 3.35 µM. In the assay on SW-620 colon, the TGI was found to be 16.1 µM.
For the molecule `COc1cccc(OC(=O)c2ccc(C(F)(F)F)nc2Nc2c(C)cccc2Cl)c1`, the GI50 in the assay on COLO 205 colon was 22.6 µM; with EKVX NSCLC it was 36.1 µM; in the assay on HCC-2998 colon, 4.63 µM; in the assay with M14 melanoma, 38.9 µM; with OVCAR-3 ovarian, 22.8 µM; with PC-3 prostate it was 20 µM. In addition, the GI50 with SW-620 colon is 46 µM. Also, the TGI in the assay on COLO 205 colon is greater than 100 µM; in the assay with EKVX NSCLC, greater than 100 µM; in the assay on HCC-2998 colon, 32.3 µM; in the assay on M14 melanoma, greater than 100 µM; with OVCAR-3 ovarian, 69.2 µM; in the assay with PC-3 prostate, 47.1 µM. Also, the TGI with SW-620 colon is greater than 100 µM.
Regarding `O=C1OCC(c2ccc(O)cc2)=C1c1cc(O)c(O)c(O)c1`, the GI50 with COLO 205 colon was greater than 100 µM; in the assay with EKVX NSCLC, greater than 100 µM; in the assay on M14 melanoma, greater than 100 µM; with OVCAR-3 ovarian it was 27.9 µM; in the assay with PC-3 prostate it was greater than 100 µM; with SR leukemia, 20.7 µM. In addition, in the assay on SW-620 colon, the GI50 was 68 µM. Also, the TGI with COLO 205 colon is greater than 100 µM; with EKVX NSCLC, greater than 100 µM; in the assay with M14 melanoma, greater than 100 µM; with OVCAR-3 ovarian, 82.3 µM; in the assay with PC-3 prostate, greater than 100 µM; in the assay with SR leukemia, greater than 100 µM. This molecule yielded a TGI in the assay with SW-620 colon greater than 100 µM.
As for `CC(=Nc1ccccc1)C1=C(O)C(Cc2cccc(F)c2)NC1=O` (configuration not stated), the GI50 was 0.035 µM with COLO 205 colon; 0.144 µM in the assay on HCC-2998 colon; 0.0487 µM in the assay on M14 melanoma; 0.0399 µM with PC-3 prostate; 0.0239 µM with SR leukemia; 0.0419 µM in the assay on SW-620 colon. Besides, the TGI with COLO 205 colon is 0.141 µM; in the assay with HCC-2998 colon, 3.1 µM; in the assay with M14 melanoma, greater than 100 µM; in the assay with PC-3 prostate, greater than 100 µM; in the assay on SR leukemia, greater than 72.8 µM; with SW-620 colon, greater than 100 µM.
As to `COc1cccc(Sc2ccc([N+](=O)[O-])c3no[n+]([O-])c23)c1`, the GI50 in the assay on COLO 205 colon is 2.49 µM; in the assay with EKVX NSCLC it was 14.8 µM; in the assay with HCC-2998 colon, 22.3 µM; in the assay on M14 melanoma, 14.3 µM; with OVCAR-3 ovarian, 2.83 µM; in the assay with PC-3 prostate, 16.9 µM. In the assay on SW-620 colon, the GI50 is 2.5 µM. The TGI in the assay on COLO 205 colon is 7.31 µM; with EKVX NSCLC, 39.5 µM; with HCC-2998 colon it was 46.3 µM; in the assay with M14 melanoma, 33.9 µM; with OVCAR-3 ovarian, 7.48 µM; in the assay with PC-3 prostate it was greater than 54.5 µM. The molecule also had a TGI in the assay on SW-620 colon of 6.14 µM.
Consider `COc1cc2c3c(n(CCCCNC(=O)OC(C)(C)C)c(=O)c2cc1OC)-c1cc2c(cc1C3=O)OCO2`, for which the GI50 in the assay with COLO 205 colon is greater than 100 µM; with EKVX NSCLC it was greater than 100 µM; with HCC-2998 colon, greater than 100 µM; in the assay with M14 melanoma, greater than 100 µM; in the assay with OVCAR-3 ovarian, 0.225 µM; in the assay on PC-3 prostate it was greater than 100 µM. Moreover, the GI50 in the assay on SW-620 colon is greater than 100 µM. Besides, the TGI with COLO 205 colon was greater than 100 µM; in the assay on EKVX NSCLC, greater than 100 µM; in the assay with HCC-2998 colon, greater than 100 µM; with M14 melanoma it was greater than 100 µM; in the assay on OVCAR-3 ovarian, 65.9 µM; with PC-3 prostate it was greater than 100 µM. In addition, the TGI in the assay with SW-620 colon is greater than 100 µM.
`CN(C)C[C@H]1CCn2c(c(C3=C(c4cn(C)c5ccccc45)C(=O)NC3=O)c3ccccc32)C1`: the GI50 in the assay on COLO 205 colon was 3.71 µM; in the assay with HCC-2998 colon, 4.86 µM; in the assay on M14 melanoma, 4.49 µM; in the assay with OVCAR-3 ovarian, 4.54 µM; in the assay with PC-3 prostate it was 3.92 µM; with SR leukemia, 4.26 µM. Besides, the GI50 in the assay on SW-620 colon was 4.42 µM. The TGI in the assay with COLO 205 colon turned out to be 7.5 µM; in the assay with HCC-2998 colon it was 9.16 µM; with M14 melanoma, 8.47 µM; in the assay on OVCAR-3 ovarian it was 8.97 µM; with PC-3 prostate, 8.56 µM; with SR leukemia, 11.1 µM. This molecule displayed a TGI in the assay with SW-620 colon of 8.89 µM.
